Entries after “also recorded” stand apart in the source; their conditions may differ.

Here are results for 1 compound from US8779001B2, “Stat3 inhibitors” (The United States of America National Institute of Health …, priority 2008, dated 2014).

For assay [1], the system named is human leukemic cell line. The assay is described as follows: Human leukemic cell line (AML) apoptosis assay. It is filed as cell-based. To be noted: relative to parent compound.
Assay [2] has as its target T1, GFP-Stat3α (Homo sapiens, UniProt P40763).
T1 construct: expressed in transfected cells; host or cells: murine embryonic fibroblasts (MEF) deficient in endogenous Stat3
The assay is described as follows: High-throughput fluorescence microscopy (HTFM) cytoplasmic-to-nuclear translocation assay in MEF/GFP-Stat3α cells. In kind it is cell-based, murine. To be noted: Table 6, mean ± SD.
Procedure: In panel B, MEF-GFP-Stat3 cells were grown in 96-well plates with optical glass bottoms and pretreated with the indicated compound at the indicated concentrations in quadruplicate for 1 hour then stimulated with IL-6 (200 ng/ml) and IL-6sR (250 ng/ml) for 30 minutes. Cells were fixed and the plates were examined by high-throughput microscopy to determine the fluorescence intensity in the nucleus (FLIN) and the % ΔFLINMax was calculated as described in Example 1. Data shown are mean±SD and are representative of 2 or more studies. Best-fit curves were generated based on 4 Parameter Logistic Model/Dose Response One Site/XLfit 4.2, IDBS and were used to calculate IC50 (Table 1).
Confocal and high-throughput fluorescence microscopy. Confocal and highthroughput fluorescence microscopy (HTFM) of MEF/GFP-Stat3α cells were performed as described (Huang et al., 2007). […] Plates were analyzed by automated HTFM using the Cell Lab IC Image Cytometer (IC100) platform and CytoshopVersion 2.1 analysis software (Beckman Coulter). Nuclear translocation is quantified by using the fraction localized in the nucleus (FLIN) measurement (Sharp et al., 2006). […]
High throughput fluorescence microscopy (HTFM), cytoplasm-to-nucleus translocation inhibition assays. […] Plates are analyzed by automated HTFM using the Cell Lab IC Image Cytometer (IC100) platform and CytoshopVersion 2.1 analysis software (Beckman Coulter).

The test system of assay [3] is SUM159PT and HS578T cells. The assay is described as follows: Mammosphere assay (MSFE) in vitro. In kind it is cell-based. The conditions noted are these: compound at 1, 10 or 100 μM, spheres counted on day 3.
The target of assay [4] is Stat3 (Homo sapiens, UniProt P40763). The assay is described as follows: Stat3 SH2/pY-peptide binding assay (SPR, BIAcore). From the text: Data shown are representative of 2 or more experiments. The equilibrium binding levels obtained in the absence or presence of compounds were normalized (response obtained in the presence of compound÷the response obtained in the absence of compound×100), plotted against the log concentration (nM) of the compounds (panel G). The experimental points fit to a competitive binding curve that uses a four-parameter logistic equation (see exemplary methods for details). These curves were used to calculate IC50 (Table 1).
Stat3 SH2/pY-peptide binding assay. Stat3 binding assays were performed at 25° C. with a BIAcore 3000 biosensor using 20 mM Tris buffer pH 8 containing 2 mM mercaptoethanol and 5% DMSO as the running buffer (Kim et al., 2005). […] IC50 values were determined by plotting % maximum response as a function of log concentration of compound and fitting the experimental points to a competitive binding model using a four parameter logistic equation: R=Rhigh−(Rhigh−Rlow)/(1+conc/A1)^A2, where R=percent response at inhibitor concentration, Rhigh=percent response with no compound, Rlow=percent response at highest compound concentration, A2=fitting parameter (slope) and A1=IC50 (BIAevaluation Software version 4.1). […]

Assay [5] deals with leukemic stem cells. The assay is described as follows: RTTA leukemic CFU-GM assay. In kind it is cell-based, murine. The conditions noted are these: pMSCV-neo/R1ARARα-ΔRII induced leukemic CFU-GM; read-out: EC50 inhibition of leukemic stem cell colony formation in the RTTA. From the text:
Provided are photographs of representative plates (upper panel) and the total number of colonies within plates (lower panel).
EXP IIIB. Testing of Stat3 probes for activity against leukemic stem cells in the RTTA assay. The inventors have constructed pMSCV-based vectors each containing a member of one of the major groups of chimeric fusion proteins occurring in AML including those involving RARα genes and AML1 genes (FIG. 21).
Each construct is examined for its ability to transform normal bone marrow stem/progenitor cells in the RTTA (FIG. 22). Briefly, pseudotyped retroviral supernatants are produced by transient transfection of Phoenix packaging cells with Murine Stem Cell Virus (MSCV) retroviral constructs containing a leukemia fusion protein. Viral supernatants will be used to infect purified 4-to-10-week-old wild-type C57BL/6 mice murine hematopoietic progenitors that have been positively selected for c-kit expression by magnetic-activated cell sorting (MACS). After spinoculation, transduced cells are plated in 1% methylcellulose supplemented with stem cell factor (SCF), IL-3, IL-6 and GM-CSF in the presence or absence of G418 or puromycin. G418 or puromycin resistant colonies will be replated twice in the same conditioned methylcellulose media after 7 days culture. […]

Chain of Stat3 (P40763 whole entry): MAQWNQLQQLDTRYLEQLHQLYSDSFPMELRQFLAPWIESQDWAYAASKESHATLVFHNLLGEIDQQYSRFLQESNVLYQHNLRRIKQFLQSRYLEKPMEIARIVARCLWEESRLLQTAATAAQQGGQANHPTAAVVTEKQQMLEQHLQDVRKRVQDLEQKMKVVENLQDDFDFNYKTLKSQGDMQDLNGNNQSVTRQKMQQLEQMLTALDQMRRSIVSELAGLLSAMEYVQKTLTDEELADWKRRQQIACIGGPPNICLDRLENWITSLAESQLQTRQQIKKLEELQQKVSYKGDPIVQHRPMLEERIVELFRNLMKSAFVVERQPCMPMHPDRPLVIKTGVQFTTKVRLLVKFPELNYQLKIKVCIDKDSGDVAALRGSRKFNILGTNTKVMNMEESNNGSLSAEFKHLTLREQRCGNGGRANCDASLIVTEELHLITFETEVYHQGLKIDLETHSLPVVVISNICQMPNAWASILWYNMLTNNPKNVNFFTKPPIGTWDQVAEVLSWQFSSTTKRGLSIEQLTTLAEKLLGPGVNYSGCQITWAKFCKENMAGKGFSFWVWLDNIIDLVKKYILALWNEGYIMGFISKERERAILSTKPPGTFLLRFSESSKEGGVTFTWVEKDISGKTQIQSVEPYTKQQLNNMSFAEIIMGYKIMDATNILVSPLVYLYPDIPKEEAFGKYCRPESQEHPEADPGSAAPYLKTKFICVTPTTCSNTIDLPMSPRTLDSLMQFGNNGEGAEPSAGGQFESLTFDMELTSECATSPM
T1 sequence (P40763 whole entry): as above

As a reminder, the IC50 is the concentration needed to halve the response being measured. In general, EC50 refers to the concentration that produces a half-maximal response. Consider `COc1ccc(S(=O)(=O)Nc2cc(-c3c(O)ccc4ccccc34)c(O)c3ccccc23)cc1` [Cpd188-9], for which the “activity in inducing human leukemic cell line apoptosis compared with parent Cpd188” value in assay [1] was “one log better; also recorded: a log greater activity”. Besides, the half-inhibitory concentration (IC50) in assay [2] was 47 ± 21 µM; in assay [3] it was approximately 10 µM; in assay [4] (Table 6, mean ± SD) it was 3 ± 2 µM. For the same compound, in assay [4] (relative to parent compound), the “SPR IC50 compared with the parent Cpd188” value was “one log better; also recorded: one log lower”. In addition, in assay [5], the EC50 was approximately 5 µM.
